This assay addresses T1, M2R(S110R)_delta_ICL3 (Homo sapiens, UniProt P08172, DEL233-359/S110R).
T1 sequence (P08172 with tags, fused parts or gaps S110R/DEL233-359): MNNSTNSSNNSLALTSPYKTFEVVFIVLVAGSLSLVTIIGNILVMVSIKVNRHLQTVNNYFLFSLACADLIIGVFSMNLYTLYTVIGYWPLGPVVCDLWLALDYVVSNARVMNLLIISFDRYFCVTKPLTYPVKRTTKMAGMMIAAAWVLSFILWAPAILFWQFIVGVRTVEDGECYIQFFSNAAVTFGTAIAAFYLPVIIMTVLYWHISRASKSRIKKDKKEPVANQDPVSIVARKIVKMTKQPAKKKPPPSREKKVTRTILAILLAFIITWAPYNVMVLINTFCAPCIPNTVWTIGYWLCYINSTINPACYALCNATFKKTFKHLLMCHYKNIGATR
Description: Inhibition of [3H]NMS binding to M2R. Particulars: S110R vs wild type, Fig. 2e.

As for `C[N+](C)(C)CC#CCOC1=NOCC1` [Iperoxo], the “reduction of affinity in S110R mutant relative to the wild type” value was around 1000 fold.

For the origin of these results see PMC6462224 (Nature chemical biology, 2018).
